In US20260248809A1, “ESTRADIOL PRODRUGS AND METHODS OF USE THEREOF” (UNIVERSITY OF MARYLAND, BALTIMORE, priority 2022, published 2026):

How the values were obtained:
Type in all cases: in vivo, mouse
mice = test: Acoustic startle response after traumatic foot shock stress; conditions: acute foot shock stress, 10 mm silastic implant
Text: Determine the role of E2 in traumatic stress-induced changes in startle response in males and females. Heightened startle reactivity is a DSM diagnostic criteria for PTSD. Individuals suffering from PTSD frequently report subjective elevations in startle response and objective studies have described increased startle reactivity in individuals with PTSD. Moreover, physiological startle response is correlated with the severity of self-reported hyperarousal symptom domains and attenuated by interventions that improve PTSD symptoms. In rodents, like humans, the startle response can be elicited by acoustic stimuli (acoustic startle response, ASR) and involves eyelid closure and skeletal muscle contractions. While ASR is frequently assessed via the eye blink reflex in humans, it can be accurately assayed via whole-body movements in rodents. Importantly, elevated ASR has been reported in rodents following traumatic stress, including electrical shock and social defeat stress. ASR is utilized as a measure of hyperarousal in mice following traumatic stress. Similar to previously described methods, ASR is assessed following acute foot shock stress. Baseline ASR is assessed over 10 startle stimuli (110 dB, pseudo-randomized average inter-stimulus interval of 30 sec). […] Changes in ASR are measured 24 hours after shock using the same startle protocol. […]

male mice = test: Acquisition, extinction and reinstatement of cued (Pavlovian) fear; conditions: non-stressed orchiectomized males, 10 mm silastic implant
Method: Determine the role of E2 in the normal acquisition, extinction, and reinstatement of cued (Pavlovian) fear responses in males. The effect of orchiectomy on the acquisition, extinction, and reinstatement of fear in non-stressed male animals is determined. It has previously been reported that orchiectomy enhances tone conditioned freezing in male mice, which was prevented with systemic testosterone administration. It has also been reported that orchiectomy delayed extinction of fear responses in male rats. The role of E2 is known in mediating fear responses, extinction, and related cognitive functions in female rodents. Fear conditioning takes place in Coulbourn shuttle boxes. The floor of the chambers consists of parallel rods connected to a Coulbourn shock source that delivers foot shocks. A speaker mounted on the top of the chamber delivers an acoustic conditioned stimulus (pure tone). […] Mice are placed in the chamber for a 3 min habituation period, wherein baseline freezing to the novel context will be assessed. […] One week later, mice are assessed for reinstatement of the conditioned fear. […] Time spent freezing across CS presentations during the extinction procedure (Days 2 and 3) is assessed with Coulbourn automated FreezeFrame software. […] If differences between the groups are detected, then whether these effects are due to altered shock sensitivity, are assessed.

gonadectomized mice = test: Inescapable foot shock stress followed by female urine preference; conditions: 10 mm silastic implant; for stress-induced female urine preference deficits: orchiectomized males, inescapable foot shock
Method: Determine effects of E2 on gonadectomy-induced susceptibility to inescapable traumatic shock stress in males and females. Most of these experiments assess the effects of social defeat stress. In this experiment the effects of an alternative type of stress-inescapable foot shocks are assessed—to determine whether the observed biological effects of E2 are stress specific. […] The effects of this stress on maladaptive behaviors and their possible reversal by testosterone and E2 are assessed. The following groups of mice are used for this experiment: (1) Sham Surgery+empty silastic tube; (2) ORX+empty silastic tube; (3) Sham Surgery+testosterone (10 mm) containing silastic tube; (4) ORX+testosterone (10 mm) containing silastic tube; (5) Sham Surgery+E2 (10 mm) containing silastic tube; (6) ORX+E2 (10 mm) containing silastic tube. Mice are exposed to inescapable foot shock (0.3 mA shocks; 180 shocks at 15 sec intervals) in a two-chambered shuttle box with a permanent divider in place. Controls are placed in the same chambers but will not receive shocks. Twenty-four hours later mice are subsequently tested for social interaction and female urine preference. As a comparison to male results, a similar experiment is conducted in females with the following groups: (1) Sham Surgery+empty silastic tube; (2) OVX+empty silastic tube; (3) Sham Surgery+E2 (10 mm) containing silastic tube; (4) OVX+E2 (10 mm) containing silastic tube. It is predicted that the effects of orchiectomy in males are reproduced to enhance stress-induced decreases in female urine preference deficits, which will be prevented by both testosterone and E2.

Row | Structure (SMILES) | increased startle after stress+orchiectomy (mice) | orchiectomy-enhanced fear conditioning and reduced rate of extinction (male mice) | stress-induced female urine preference deficits (gonadectomized mice) | effects of ovariectomy plus foot shock stress (gonadectomized mice; ovariectomized females)
1 | C[C@]12CC[C@H]3[C@@H](CCC4=CC(=O)CC[C@@]43C)[C@@H]1CC[C@@H]2O [Testosterone, testosterone] | recoverable | prevented by testosterone | prevented | 
2 | C[C@]12CC[C@@H]3c4ccc(O)cc4CC[C@H]3[C@@H]1CC[C@@H]2O [Example E2, 17β-Estradiol] | recoverable | reverse this effect | prevented | prevented by the replacement of E2
